Test results published in patent publication US20230083973A1, “SUBSTITUTED CYCLOPROPYL-2,2'-BIP[…], ANALOGUES THEREOF, AND METHODS USING SAME” (priority 2019, published 2023).
pEC50: −log10 of the molar value.

test system: HBsAg; assay: HBsAg assay: inhibition of HBsAg in HepG2.2.15 cells (chemiluminescence immunoassay of supernatant); format: cell-based, hepatitis B virus; details: Hepatitis B virus, HepG2.2.15, 144 h, read-out: sAg EC50, HepG2.2.15 cells; HBsAg in supernatant at day 6 after exposure to compound; 0.5% DMSO
In short: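 HepG2.2.15 cells treated with serially diluted compounds (0.5% DMSO), medium and compound refreshed after 2–3 days, supernatant harvested at day 6. Secreted HBsAg measured by chemiluminescence immunoassay; EC50 from dose-response curves, with parallel CellTiter-Glo viability at 5,000 cells/well.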

SMILES | pEC50
COc1cc([C@@H]2C[C@H]2c2cnc(-c3ncccn3)nc2)cc(C(F)(F)F)c1F (relative stereo) [Example 165, trans-5-(2-(4-Fluoro-3-methoxy-5-(trifluoromethyl)phenyl)cyclopropyl)-2,2′-bipyrimidine] | 6.60
COc1cc2ncn(-c3cc([C@@H]4C[C@H]4c4cnc(-c5ncccn5)nc4)cc(F)c3F)c2cc1OC (relative stereo) [Example 237, trans-1-(5-(2-([2,2′-Bipyrimidin]-5-yl)cyclopropyl)-2,3-difluorophenyl)-5,6-dimethoxy-1H-benzo [d]imidazole] | 6.70
COc1ccc([C@H]2C[C@H]2c2cnc(-c3ncccn3)nc2)c(F)c1 (relative stereo) [Example 73, cis-5-(2-(2-Fluoro-4-methoxyphenyl)cyclopropyl)-2,2′-bipyrimidine] | 5.05
COc1cc([C@@H]2C[C@H]2c2cnc(-c3ccccn3)nc2)cc(OC)c1OC (relative stereo) [Example 176, trans-2-(Pyridin-2-yl)-5-(2-(3,4,5-trimethoxyphenyl)cyclopropyl)pyrimidine] | 5.70
COc1cc([C@@H]2C[C@H]2c2cnc(-c3ccccn3)nc2)cc(OC)c1F (relative stereo) [Example 175, trans-5-(2-(4-Fluoro-3,5-dimethoxyphenyl)cyclopropyl)-2-(pyridin-2-yl)pyrimidine] | 6.46
c1cnc(-c2ncc([C@@H]3C[C@H]3c3ccc4ccccc4c3)cn2)nc1 (relative stereo) [Example 167, trans-5-(2-(Naphthalen-2-yl)cyclopropyl)-2,2′-bipyrimidine] | 6.74
COCCCn1cnc2cc([C@@H]3C[C@H]3c3cnc(-c4ncccn4)nc3)cc(F)c21 (relative stereo) [Example 273, trans-5-(2-([2,2′-Bipyrimidin]-5-yl)cyclopropyl)-7-fluoro-1-(3-methoxypropyl)-1H-benzo[d]imidazole] | 7.37
Fc1ccc(C2CN(c3cc([C@@H]4C[C@H]4c4cnc(-c5ncccn5)nc4)cc(F)c3F)C2)cc1F (relative stereo) [Example 214, trans-5-(2-(3-(3-(3,4-difluorophenyl)azetidin-1-yl)-4,5-difluorophenyl)cyclopropyl)-2,2′-bipyrimidine] | 7.34
Fc1cc([C@@H]2C[C@H]2c2cnc(-c3ncccn3)nc2)cc(N2CC3(COC3)C2)c1F (relative stereo) [Example 209, trans-6-(5-(2-([2,2′-Bipyrimidin]-5-yl)cyclopropyl)-2,3-difluorophenyl)-2-oxa-6-azaspiro[3.3]heptane] | 6.92
COc1ccc(C2CC2c2cnc(-c3ncccn3)nc2)c(F)c1 (single isomer, unassigned) [Example 3, trans-5-(2-(2-Fluoro-4-methoxyphenyl)cyclopropyl)-2,2′-bipyrimidine] | 6.72

same assay, conditions: read-out: sAg EC50; HepG2.2.15 cells; HBsAg in supernatant at day 6 after exposure to compound; 0.5% DMSO

SMILES | pEC50
COc1cc(C2CC2c2cnc(-c3ncccn3)nc2)cc(F)c1Cl (single isomer, unassigned) [Example 45, trans-5-(2-(4-Chloro-3-fluoro-5-methoxyphenyl)cyclopropyl)-2,2′-bipyrimidine] | 6.57
Fc1cc(C2CC2c2cnc(-c3ncccn3)nc2)cc(N2CCC3(COC3)C2)c1F (single isomer, unassigned) [Example 223, trans-6-(5-(2-([2,2′-Bipyrimidin]-5-yl)cyclopropyl)-2,3-difluorophenyl)-2-oxa-6-azaspiro[3.4]octane] | 8.00
O[C@H]1CCN(c2cc(C3CC3c3cnc(-c4ncccn4)nc3)cc(F)c2F)C1 (single isomer, unassigned) [Example 107] | 7.68
COC1CN(c2cc(C3CC3c3cnc(-c4ncccn4)nc3)ccc2F)C1 (single isomer, unassigned) [Example 48, trans-5-(2-(4-Fluoro-3-(3-methoxyazetidin-1-yl)phenyl)cyclopropyl)-2,2′-bipyrimidine] | 7.49
Fc1ccc(C2CC2c2cnc(-c3ncccn3)nc2)cc1F (single isomer, unassigned) [Example 15, trans-5-(2-(3,4-Difluorophenyl)cyclopropyl)-2,2′-bipyrimidine] | 7.12
COc1cc(C2CC2c2cnc(-c3ncccn3)nc2)cc(Cl)c1F (single isomer, unassigned) [Example 148, trans-5-(2-(3-Chloro-4-fluoro-5-methoxyphenyl)cyclopropyl)-2,2′-bipyrimidine] | 6.00
Fc1cc(C2CC2c2cnc(-c3ncccn3)nc2)cc(O[C@@H]2CCOC2)c1F (single isomer, unassigned) [Example 247] | 7.12
COc1c(F)ccc(C2CC2c2cnc(-c3ncccn3)nc2)c1F (single isomer, unassigned) [Example 189, trans-5-(2-(2,4-Difluoro-3-methoxyphenyl)cyclopropyl)-2,2′-bipyrimidine] | 6.92
Fc1cc(C2CC2c2cnc(-c3ncccn3)nc2)cc(O[C@@H]2CCOC2)c1F (single isomer, unassigned) [Example 248] | 6.00
COc1c(Cl)ccc(C2CC2c2cnc(-c3ncccn3)nc2)c1F (single isomer, unassigned) [Example 56, trans-5-(2-(4-Chloro-2-fluoro-3-methoxyphenyl)cyclopropyl)-2,2′-bipyrimidine] | 6.33
Fc1ccc(C2CC2c2cnc(-c3ncccn3)nc2)cc1OC(F)F (single isomer, unassigned) [Example 185, trans-5-(2-(3-(Difluoromethoxy)-4-fluorophenyl)cyclopropyl)-2,2′-bipyrimidine] | 6.92
COc1ccc(C2CC2c2cnc(-c3ncccn3)nc2)c(F)c1 (single isomer, unassigned) [Example 2, trans-5-(2-(2-Fluoro-4-methoxyphenyl)cyclopropyl)-2,2′-bipyrimidine] | 6.64
CS(=O)(=O)N1CCN(c2cc(C3CC3c3cnc(-c4ncccn4)nc3)ccc2F)CC1 (single isomer, unassigned) [Example 42, trans-5-(2-(4-Fluoro-3-(4-(methylsulfonyl)piperazin-1-yl)phenyl)cyclopropyl)-2,2′-bipyrimidine] | 6.66
COc1cc(C2CC2c2cnc(-c3ncccn3)nc2)cc(F)c1F (single isomer, unassigned) [Example 84, trans-5-(2-(3,4-Difluoro-5-methoxyphenyl)cyclopropyl)-2,2′-bipyrimidine] | 6.62
Fc1ccc(C2CC2c2cnc(-c3ncccn3)nc2)cc1OCC1CC1 (single isomer, unassigned) [Example 25, trans-5-(2-(3-(Cyclopropylmethoxy)-4-fluorophenyl)cyclopropyl)-2,2′-bipyrimidine] | 6.57
COc1cc(F)cc(C2CC2c2cnc(-c3ncccn3)nc2)c1 (single isomer, unassigned) [Example 113, trans-5-(2-(3-Fluoro-5-methoxyphenyl)cyclopropyl)-2,2′-bipyrimidine] | 7.59
COc1cc(C2CC2c2cnc(-c3ncccn3)nc2)cc(OC)c1F (single isomer, unassigned) [Example 146, trans-5-(2-(4-Fluoro-3,5-dimethoxyphenyl)cyclopropyl)-2,2′-bipyrimidine] | 6.96
Fc1ccc(C2CC2c2cnc(-c3ncccn3)nc2)cc1N1CCCCC1 (single isomer, unassigned) [Example 196, trans-5-(2-(4-Fluoro-3-(piperidin-1-yl)phenyl)cyclopropyl)-2,2′-bipyrimidine] | 6.68
COc1cc(C2CC2c2cnc(-c3ncccn3)nc2)c(F)cc1Cl (single isomer, unassigned) [Example 87, trans-5-(2-(4-Chloro-2-fluoro-5-methoxyphenyl)cyclopropyl)-2,2′-bipyrimidine] | 6.85
COCCOc1cc(C2CC2c2cnc(-c3ncccn3)nc2)cc(F)c1F (single isomer, unassigned) [Example 135, trans-5-(2-(3,4-Difluoro-5-(2-methoxyethoxy)phenyl)cyclopropyl)-2,2′-bipyrimidine] | 7.66
Fc1cc(C2CC2c2cnc(-c3ncccn3)nc2)cc(N2CC3(CCOCC3)C2)c1F (single isomer, unassigned) [Example 136, trans-2-(5-(2-([2,2′-Bipyrimidin]-5-yl)cyclopropyl)-2,3-difluorophenyl)-7-oxa-2-azaspiro[3.5]nonane] | 6.04
OC1CN(c2cc(C3CC3c3cnc(-c4ncccn4)nc3)ccc2F)C1 (single isomer, unassigned) [Example 54, trans-1-(5-(2-([2,2′-Bipyrimidin]-5-yl)cyclopropyl)-2-fluorophenyl)azetidin-3-ol] | 6.66
Cc1cn(-c2cc(C3CC3c3cnc(-c4ncccn4)nc3)cc(F)c2F)cn1 (single isomer, unassigned) [Example 261, trans-5-(2-(3,4-Difluoro-5-(4-methyl-1H-imidazol-1-yl)phenyl)cyclopropyl)-2,2′-bipyrimidine] | 6.17
COc1cc(C2CC2c2cnc(-c3ncccn3)nc2)cc(C)c1F (single isomer, unassigned) [Example 151, trans-5-(2-(4-Fluoro-3-methoxy-5-methylphenyl)cyclopropyl)-2,2′-bipyrimidine] | 7.09
COc1cc(C2CC2c2cnc(-c3ncccn3)nc2)cc(OC)c1Cl (single isomer, unassigned) [Example 98, trans-5-(2-(4-Chloro-3,5-dimethoxyphenyl)cyclopropyl)-2,2′-bipyrimidine] | 6.46
Fc1ccc(C2CC2c2cnc(-c3ncccn3)nc2)cc1OCC(F)F (single isomer, unassigned) [Example 27, trans-5-(2-(3-(2,2-Difluoroethoxy)-4-fluorophenyl)cyclopropyl)-2,2′-bipyrimidine] | 6.20
Fc1cc([C@@H]2C[C@H]2c2cnc(-c3ncccn3)nc2)cc(-n2cccn2)c1F (single isomer, unassigned) [Example 254, trans-5-(2-(3,4-Difluoro-5-(1H-pyrazol-1-yl)phenyl)cyclopropyl)-2,2′-bipyrimidine] | 7.33
